Measurements from ChEMBL document CHEMBL4689842, “EUbOPEN Chemogenomics Library wave 1” (2021).

Experiments:
Type in all cases: toxicity, cell-based
[1] = test system: HEK-293T; experiment: Incucyte cell viability with HEK293T; details: human, 10 µM, compound concentration 10 uM
[2] = test system: Fibroblast; experiment: Incucyte cell viability with human fibroblast; details: 10 µM, compound concentration 10 uM
[3] = test system: U2OS; experiment: Incucyte cell viability with U2OS; details: human, 10 µM, compound concentration 10 uM
[4] = 0 h, replicate number 1, timepoint 0 hours
[5] = 6 h, replicate number 1, timepoint 6 hours
[6] = 6 h, replicate number 2, timepoint 6 hours
[7] = 12 h, replicate number 1, timepoint 12 hours
[8] = 12 h, replicate number 2, timepoint 12 hours
[9] = 18 h, replicate number 1, timepoint 18 hours
[10] = 24 h, replicate number 1, timepoint 24 hours
[11] = 24 h, replicate number 2, timepoint 24 hours
[12] = 18 h, replicate number 2, timepoint 18 hours
[13] = 0 h, replicate number 2, timepoint 0 hours
Note: filed as whole numbers so only -1 and 0 and 1 occur.

Structure (SMILES)	Growth Rate [1, 4]	Growth Rate [1, 5]	Growth Rate [1, 6]	Growth Rate [1, 7]	Growth Rate [1, 9]	Growth Rate [1, 10]	Growth Rate [1, 11]	Growth Rate [2, 4]	Growth Rate [2, 5]	Growth Rate [2, 7]	Growth Rate [2, 8]	Growth Rate [2, 9]	Growth Rate [2, 10]	Growth Rate [3, 4]	Growth Rate [3, 6]	Growth Rate [3, 7]	Growth Rate [3, 9]	Growth Rate [3, 10]	Growth Rate [1, 13]	Growth Rate [3, 11]	also measured
CN(C(=O)Cc1ccc(Cl)c(Cl)c1)C(CN1CCCC1)c1cccc(OCC(=O)O)c1.Cl (stereo not given)	0	1	0	1	1	1	0	0	0	0	1	0	0	0	1	0	0	1			Growth Rate [1, 8]: 0; Growth Rate [3, 8]: 1; Growth Rate [3, 12]: 1
CC(=O)[C@@]1(O)CC[C@H]2[C@@H]3C[C@H](C)C4=CC(=O)CC[C@]4(C)[C@H]3CC[C@@]21C	1	0		0	0	0		1	0	1		1	1	1		1	1	1	0		Growth Rate [2, 13]: 0; Growth Rate [3, 5]: 1
CN(CCOc1ccc(C[C@H](Nc2ccccc2C(=O)c2ccccc2)C(=O)O)cc1)c1ccccn1.O	1	0	1	1	1	1	0	0	1		0		1	0	0	0	0	1	0	0	Growth Rate [2, 6]: 0; Growth Rate [2, 12]: 0; Growth Rate [2, 11]: 0
O=C(Nc1cccc2c(=O)cc(-c3nnn[nH]3)oc12)c1ccc(OCCCCc2ccccc2)cc1	1	0	1	0	0	0	1	0	0	0	1	0	0	1		0	0	1	0	0	Growth Rate [2, 13]: 1; Growth Rate [2, 12]: 1; Growth Rate [3, 5]: 0
Cc1nc(C#Cc2ccnc(Cl)c2)c(C)n1-c1ccc(OC(F)(F)F)cc1	0	0		0	0	0		1	1	0		1	1	0		1	1	1			Growth Rate [2, 13]: 0; Growth Rate [2, 6]: 0; Growth Rate [2, 12]: 0; Growth Rate [2, 11]: 0
Cc1cc(SCc2sc(-c3ccc(C(F)(F)F)c(F)c3)nc2C)ccc1OCC(=O)O	0	1		1	0	0		0	1	1	0	1	1	0	1	1	1	1			Growth Rate [1, 8]: 0; Growth Rate [2, 11]: 0
Cc1cc(C)c(N)c(C#Cc2cccc(F)c2)n1.Cl	1	0	1	0	0	0	1	0	0	0		0	0			0	0	0	0	1	Growth Rate [1, 8]: 1; Growth Rate [1, 12]: 1; Growth Rate [3, 5]: 0; Growth Rate [3, 12]: 1
O=C(O)CC1CCC2(CC1)CCN(c1cc(OC(F)(F)F)ccc1Cl)CC2	0	1		0	0	0	1	0	1			1	1	1	1	1	1	1			Growth Rate [1, 8]: 1; Growth Rate [1, 12]: 1; Growth Rate [3, 13]: 0
COc1ccc(/C=C/CCCCOc2ccc(C(=O)c3cccc(C(=O)O)c3)cc2CCC(=O)O)cc1	1	1		1	1	1	0	0	1	0		0	0	0	0		1	1	0	0	Growth Rate [2, 6]: 0; Growth Rate [3, 8]: 0; Growth Rate [3, 12]: 0
Cc1cc(C)cc(C(=O)N(C)[C@H](Cc2ccc(-c3ccccc3)cc2)C(=O)N[C@@H](Cc2c[nH]c3ccccc23)C(=O)O)c1	1	0		0	0	0		0			1					0	0	0	0	1	Growth Rate [2, 6]: 0; Growth Rate [2, 12]: 1; Growth Rate [2, 11]: 1; Growth Rate [3, 13]: 0; Growth Rate [3, 5]: 0; Growth Rate [3, 8]: 1; Growth Rate [3, 12]: 1
